For assay [1], the target named is T1, Stat3 (Homo sapiens, UniProt P40763). Description: Stat3 SH2 domain affinity, fluorescence polarization. The assay is classed as binding. Conditions: for fold weaker / loss in affinity: relative to compound 28; for fold loss in affinity: relative to compound 21. Background: Fluorescence polarisation rises when a labelled molecule tumbles more slowly, as on binding a larger partner.

The target of assay [2] is T1, Stat3. Conditions: cited from earlier work.
Setting [3] is: lead phosphopeptides, ref Coleman et al.[16].

Where “and” joins values, the source holds several entries; their conditions need not be identical. Equal entries are not always repeated. Where two headings read alike, the source gives them in different places. Square brackets hold non-standard residues; d marks the D form. Ends that are not written are not given here. * marks the point of attachment. pY = N[C@@H](Cc1ccc(OP(=O)(O)O)cc1)C(=O)O; pCinn = not defined here; NHBn = c1ccc(CN*)cc1

A word on the IC50: it is the concentration that inhibits the measured activity by half.

T1 sequence (P40763 whole entry, species assumed, the tested form may be a part): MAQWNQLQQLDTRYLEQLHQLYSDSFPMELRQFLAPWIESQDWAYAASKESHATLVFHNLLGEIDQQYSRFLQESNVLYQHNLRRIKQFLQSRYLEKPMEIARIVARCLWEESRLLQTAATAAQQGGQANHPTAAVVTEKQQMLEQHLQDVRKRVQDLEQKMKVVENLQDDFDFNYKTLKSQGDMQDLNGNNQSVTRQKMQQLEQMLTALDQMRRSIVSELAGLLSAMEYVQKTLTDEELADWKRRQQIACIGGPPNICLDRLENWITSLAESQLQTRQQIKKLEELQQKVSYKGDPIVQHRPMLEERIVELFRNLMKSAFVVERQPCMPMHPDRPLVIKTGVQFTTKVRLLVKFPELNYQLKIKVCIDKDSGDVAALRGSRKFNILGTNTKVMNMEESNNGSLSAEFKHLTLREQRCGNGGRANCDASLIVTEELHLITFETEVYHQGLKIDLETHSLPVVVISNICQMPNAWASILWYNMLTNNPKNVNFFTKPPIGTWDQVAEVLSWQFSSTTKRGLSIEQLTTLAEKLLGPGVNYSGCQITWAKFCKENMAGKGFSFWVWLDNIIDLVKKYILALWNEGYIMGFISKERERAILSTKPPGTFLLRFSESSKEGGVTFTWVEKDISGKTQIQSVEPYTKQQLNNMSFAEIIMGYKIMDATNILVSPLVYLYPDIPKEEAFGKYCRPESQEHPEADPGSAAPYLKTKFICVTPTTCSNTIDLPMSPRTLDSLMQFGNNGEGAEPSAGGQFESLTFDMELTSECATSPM

Turning to `C[S+]([O-])CC[C@H](NC(=O)[C@@H]1Cc2cccc3c2N1C(=O)[C@@H](NC(=O)/C=C/c1ccc(OP(=O)(O)O)cc1)CC3)C(N)=O` (stereo partly shown) [Compound 34, pCinn-Haic-Met(O)-NH2], on Stat3 [1], the “fold weaker / loss in affinity” value is recorded as ~10 fold. As to `NC(=O)[C@@H]1Cc2cccc3c2N1C(=O)[C@@H](NC(=O)/C=C/c1ccc(OP(=O)(O)O)cc1)CC3` [Compound 31, pCinn-Haic-NH2], the fold weaker at Stat3 [1] (relative to compound 24) stood at 42 fold. Also, the “fold weaker / loss in affinity” value at Stat3 [1] turned out to be 150 fold. As to Ac-[pY]LPQ-NH2 [Compound 3], the IC50 at Stat3 [2] (setting [3]) is 856 ± 41 nM.

Take “7: XXX-Leu-Pro-Gln-Thr-NH2 with XXX = Ac-pTic; drawing shows XXX only [Compound 7]”: the IC50 in the assay with Stat3 [1] (fluorescence polarization) is > 100000 nM. Consider `O=C(O)CCCNC(=O)[C@@H]1Cc2cccc3c2N1C(=O)[C@@H](NC(=O)/C=C/c1ccc(OP(=O)(O)O)cc1)CC3` [Compound 24, pCinn-Haic-Gaba], for which the “fold loss in affinity” value on Stat3 [1] was 5 fold. On to `CS(=O)(=O)CC[C@H](NC(=O)[C@@H]1Cc2cccc3c2N1C(=O)[C@@H](NC(=O)/C=C/c1ccc(OP(=O)(O)O)cc1)CC3)C(N)=O` [Compound 35, pCinn-Haic-Met(O2)-NH2], for which the “fold weaker / loss in affinity” value on Stat3 [1] is given as ~10 fold. As to “pCinn-Leu-Pro-Gln-NHBn ([pCinn]LPQ-NHBn; reading uncertain; also: printed as pCinn-Leu-Pro-Gln-NHBn) [Compound 17]”, the IC50 with Stat3 [2] (ref [69]) is 138 ± 8 nM. For the compound “Ac-Tyr(PO3H2)-Leu-Pro-Gln-Thr-NH2 (Ac-[pY]LPQT-NH2; SMILES CC(=O)N[C@@H](Cc1ccc(OP(=O)(O)O)cc1)C(=O)N[C@@H](CC(C)C)C(=O)N1CCC[C@H]1C(=O)N[C@@H](CCC(N)=O)C(=O)N[C@H](C(N)=O)[C@@H](C)O) [Compound 2]”, the IC50 with Stat3 [2] (setting [3]) is 740 nM and 739 nM. For the compound `NC(=O)CC[C@H](NC(=O)[C@@H]1CC[C@@H]2CC[C@H](NC(=O)/C=C/c3ccc(OP(=O)(O)O)cc3)C(=O)N21)C(=O)NCc1ccccc1` [Compound 18, pCinn-(3S,6S,9S)-ABN-Gln-NHBn], the fold lower affinity on Stat3 [1] (relative to Leu-Pro analogue 17) is 4 fold.

Take `C[C@H](NC(=O)[C@@H]1Cc2cccc3c2N1C(=O)[C@@H](NC(=O)/C=C/c1ccc(OP(=O)(O)O)cc1)CC3)C(N)=O` [Compound 32, pCinn-Haic-Ala-NH2]: the “activity / affinity for Stat3 in words” value on Stat3 [1] is “micromolar range”. On to `NC(=O)CC[C@H](NC(=O)[C@@H]1Cc2cccc3c2N1C(=O)[C@@H](NC(=O)/C=C/c1ccc(OP(=O)(O)O)cc1)CC3)C(=O)O` [Compound 26, pCinn-Haic-Gln-OH], for which, at Stat3 [1], the “fold loss in affinity” value turned out to be 2 fold.

For the compound “Ac-Tyr(PO3H2)-Leu-Pro-Gln-NHBn (Ac-[pY]LPQ-NHBn; SMILES CC(=O)N[C@@H](Cc1ccc(OP(=O)(O)O)cc1)C(=O)N[C@@H](CC(C)C)C(=O)N1CCC[C@H]1C(=O)N[C@@H](CCC(N)=O)C(=O)NCc1ccccc1) [Compound 4]”, the IC50 with Stat3 [2] (setting [3]) is 409 ± 15 nM.

(Values after PMC2735258 (Journal of medicinal chemistry, 2009).)
